Experimental data from patent US12383526B2, “Optimized sigma-1 agonist method of responder selection and treatment” (ANAVEX LIFE SCIENCES CORP., priority 2018, dated 2025).

Key:
[1] = Plasma concentrations of ANAVEX2-73 and its metabolite ANAVEX19-144 in the 57-week study; type: in vivo, human; settings: for Mean Concentration ANAVEX2-73, Max / Mean Concentration ANAVEX2-73, Mean / Mean Concentration ANAVEX2-73, Min: plasma
Method: A pharmacokinetics analysis was performed during Part A only. Blood samples were drawn at 12 and 11 time points after the first oral or IV administration during the first and second periods of Part A, respectively. Pharmacokinetic parameters included in the analysis consisted of maximum plasma drug concentration (C max), time to maximum plasma concentration during a dosing interval (t max), area under the curve from the time of dosing to the last measurable concentration (AUC0-t), mean elimination half-life (t ½), and the total body clearance for extravascular administration divided by the fraction of dose absorbed (CL/F).
Steady-state plasma levels of ANAVEX2-73 and its metabolite ANAVEX19-144 were assessed in Part B through blood samples collection at pre-specified time points (Weeks 12, 26, 36 and 48). Mean concentration values in ng/mL of each patient were then averaged. Table 14 illustrates mean plasma concentrations of ANAVEX2-73 and its metabolite ANAVEX19-144 during the 57-week study study.

[2] = system: subjects with mild-to-moderate AD; test: KEM Formal Concept Analysis association rules (support, confidence, lift) linking patient characteristics with MMSE / ADCS-ADL response; parameters: species or system human
Excerpt: A small cohort, with the number of patient observations orders of magnitude smaller than number of attributes, constitutes an analytical challenge. In this study, an unsupervised Formal Concept Analysis method (FCA), based on Galois lattices, as implemented in the KEM software (v.3.6.2), was used to identify and rank phenotypic and genotypic biomarkers. No link is assumed in this analysis between biomarkers and outcomes, enabling a hypothesis free, data-driven, generation of all relations.
A total of 3,145,630 relations between all available features were explored. Stringent filtering excluded rules containing variables coding for the absence of DNA variants and medium RNA expression groups. Numerical filtering of rules involved the following thresholds: support (n>3), confidence (>50%), lift (≥1.2) and p-value (Fisher Exact Test or Mann-Whitney-Wilcoxon<0.05). The filtering steps led to a subset of 1,019 association rules linking clinical, genomic and transcriptomics patient characteristics with response at multiple time points. A second filtering step focused on relationships with response at week 57 only, raising […], and lift≥1.5, and excluding RNA expression, CYP variants and dose/concentration from Part A. This further reduced the number of rules to 15 associations linked to outcome as measured by Delta (with binarized discretization) or Slope of MMSE or ADCS-ADL at week 57. The 15 rules are presented in order of highest confidence and highest lift. The stringent filtering focused on relationships of response at week 57 (end of Part B), reduced the number of associations to only 15 linked to outcomes as measured by Delta or Slope MMSE or ADCS-ADL (Table 4). […] Higher concentrations improved Delta ADCS-ADL scores (p=0.03) (FIG. 2C).
The KEM® (Knowledge Extraction and Management) v 3.6.2 software was used to systematically extract relations between all variables collected. […]
P-values from two statistical tests were calculated for each association rule. […]

[3] = Safety and tolerability, 57-week study; type: in vivo, human
Method: Part B, following immediately after Part A, was an open-label extension of the oral daily dose for an additional 52 weeks. The primary endpoint of 57-week study was to establish the safety and tolerability of the drug. Secondary endpoints aimed at establishing the relationship between dosing regimen and pharmacodynamics-exploratory efficacy outcomes of cognition and function. Cognition was assessed by the Mini Mental State Examination (MMSE), while functional abilities by the Alzheimer's Disease Co-operative Study—Activities of Daily Living Inventory (ADCS-ADL). Additional cognitive measures included the Cogstate Brief Battery (CBB), and functional measures of Electroencephalography and Event-Related Potential (EEG and ERP). Part B continued an adaptive oral administration scheme. Table 12 summarizes mean oral dose administration during the 57-week study study. Safety was evaluated by assessment of incidence and severity of adverse events, vital signs, physical examination, clinical laboratory parameters (hematology, serum chemistry and urinalysis), and electrocardiogram (data not shown).

CN(C)CC1CCOC1(c1ccccc1)c1ccccc1.Cl (stereo not drawn) [ANAVEX2-73, tetrahydro-N,N-dimethyl-2,2-diphenyl-3-furanmethanamine hydrochloride]
plasma concentration versus dose in the present study ([1]; 57-week study Part A, FIG. 2B): dose-dependent increase
Mean Concentration ANAVEX2-73, Max ([1]; Part A1 (Day 1-2)): 15.9 ng/mL
Mean Concentration ANAVEX2-73, Mean ([1]; Part A1 (Day 1-2)): 5.25 ng/mL
Mean Concentration ANAVEX2-73, Min ([1]; Part A1 (Day 1-2: within 2 days of first oral dose), N = 32 patients): 0.84 ng/mL
Mean Concentration ANAVEX2-73, Max ([1]; Part A2 (Day 3-12)): 8.44 ng/mL
Mean Concentration ANAVEX2-73, Mean ([1]; Part A2 (Day 3-12)): 2.11 ng/mL
Mean Concentration ANAVEX2-73, Min ([1]; Part A2 (Day 3-12)): 0.03 ng/mL
Mean Concentration ANAVEX2-73, Max ([1]; Part B (Week 5 to Week 57)): 11.58 ng/mL
Mean Concentration ANAVEX2-73, Mean ([1]; Part B (Week 5 to Week 57)): 3.8 ng/mL
Mean Concentration ANAVEX2-73, Min ([1]; Part B (Week 5 to Week 57)): 0 ng/mL
Confidence, High Concentration Part B -> MMSE Slope Improve ([2]; Week 57, Support 5, nx 8, ny 7): 0.63
Lift, High Concentration Part B -> MMSE Slope Improve ([2]; Week 57, Support 5, nx 8, ny 7): 1.88
increase in probability of improved MMSE outcome ([2]; average blood concentration above 4 ng/mL in Part B, week 57): 1.88 fold
primary endpoint of safety and tolerability ([3]; 57-week Phase 2a AD study, 32 patients with mild to moderate AD): met its primary endpoint of safety and tolerability
patients discontinued due to an Adverse Event (AE) ([3]; 57-week study, seven patients discontinued in total): one
